From patent US20080279961A1, “TELOMERE TARGETING AGENTS AS STEM CELLS DIRECTED TREATMENTS” (priority 2007, published 2008)
“Also recorded” adds a separate entry of the source.

Experiments:
UXF1138L cells = assay: human tumor stem cell assay (HTCA)/clonogenic assay; type: cell-based; conditions: UXF1138L colonies; read-out: IC50 colony growth in the HTCA
Protocol: In human tumor stem cell assay (HTCA)/clonogenic assay, single cell suspensions from in vivo studies above were washed in medium and passed through sieves and the resulting single cell suspensions seeded into soft agar (n=3 tumors per group) as described by us before (Fiebig et al., 2004). Single cell suspensions of cell lines were prepared by trypsinization from cells growing as monolayers on plastic. Briefly, 5,000 (HEK293T cells), 10,000 (PC3, MCF-7 and UXF1138L cells) or 50,000 (UXF1138L tumor tissue) vital cells were added to 0.2 ml Iscove's medium/20% fetal bovine serum/0.05% gentamycin containing 0.4% agar and plated on top of a base layer consisting of 0.2 ml medium with 0.75% agar. The next day, the agar layers were fed with Isocve's medium and cultures incubated at 37° C., 7% CO2 for approximately 11 days. Vital colonies were stained with 2-(4-iodophenyl)-3-(4-nitrophenyl)-5-phenyltetrazolium chloride (1 mg/ml) 24 hrs before evaluation, and colonies >70 μm were counted with an automated image analysis system (Omincon FAS IV, BIOSYS GmbH, Karben, Germany). Drug effect was assessed as growth inhibitory concentrations 50 and 70% (IC50, IC70). Methylcellulose was used to grow cord blood stem cells instead of soft agar. The seeding density was 20,000 cells/well. Stem cell growth factor supplemented and optimized methylcellulose (Methocult H4434) was purchased from Stem Cell Technologies (Vancouver, CA). Methylcellulose lacking growth factors was used as negative growth control. Statistical significance between treatment groups was evaluated by using the Student T-test.
The growth inhibitory activity of RHPS4 in human bulk tumor cells have been compared, by MTT assay, against RHPS4 activity in tumor cells grown as colonies in the clonogenic assay, also termed the human tumor stem cell assay (HTCA) (FIG. 2A-B). HEK293T human embryonic kidney cells grown in the HTCA, and cord blood cells cultured in methylcellulose were also treated with RHPS4 (FIG. 2C). The MTT assay is a 5 day proliferation test measuring effects on a morphologically heterogeneous, differentiated cell population (bulk cells), whereas the HTCA and methylcellulose assays are longer term (10-15 day) tests in which only a very small fraction of a bulk culture (˜0.1-1%) will grow as colonies. Cells growing anchorage-independently as colonies in a semi-solid matrix are considered to be pluripotent stem cells (Hamburger & Salmon, 1977; Locke et al., 2005; Fiebig et al. 2004). […] Similar observations were made with the breast cancer cell line MCF-7 (shown in FIG. 2B, HTCA IC50=0.04 microM; bulk cell IC50=2 microM).

gamma-H2AX = gamma-H2AX immunoblotting and immunofluorescence; type: cell-based, human; conditions: UXF1138L cells, 1 μM, Western blot
Protocol: During phosphorylated H2AX (gamma-H2AX) and hTERT immunofluorescence staining, approximately 75,000 UXF1138L cells/chamber were seeded onto 8 chamber glass slides (Costar) 24 hrs prior to RHPS4 treatment. After exposure to 1 μM RHPS4 for 1, 6, or 24 hours, cells were washed twice with PBS and air dried. Cells were fixed and permeabilized by immersion into ice-cold methanol/acetone (1:1; 3×1 min). Slides were blocked overnight at 4° C. with 5% BSA in PBS and washed with PBS (3×) before incubation (2 hrs) with anti-gamma-H2AX mouse monoclonal antibody (Upstate, Waltham, Mass.; 1:250 in PBS) or hTERT monoclonal antibody (NCL-L-hTERT Novacastra, Newcastle, UK; 1:40) respectively. Control cells were probed with mouse IgG (Santa Cruz Biotechnolog Inc., Santa Cruz, Calif.). Slides were washed 3× with PBS, before incubation with a goat anti-mouse FITC conjugated secondary antibody (Sigma; 1:100, 3 h). Following further PBS washes (3×), slides were incubated with 1:5000 DAPI (2 mg/ml; Sigma), washed 3× in PBS and mounted with Vectashield mounting media. Images were visualized as described above.
During immunoblotting for gamma-H2AX, cells were grown to 50 to 80% confluent in 6-well plates (Falcon) and treated with 1 μM RHPS4 for 1, 6, and 24 hours. […] Histones were dissolved in water and protein concentration was determined using the BioRad protein assay (BioRad Laboratories, Hercules Calif.). […]

water solubility = type: physicochemical
Description: RHPS4 was synthesized as described (Heald et al 2002). RHPS4 is water-soluble and was therefore dissolved in phosphate buffered saline (PBS). For in vitro studies paclitaxel (Taxol) was purchased from Sigma (St. Louis, Mo.) and dissolved in dimethylsulfoxide (DMSO); for in vivo experiments the clinical formulation was used and obtained Cremophor from Bristol-Myers Squibb, New York, N.Y.

HEK293T = assay: cytokine secretion into clonogenic assay supernatant (ELISA); type: cell-based, human; conditions: HEK293T normal stem cell culture supernatant
Protocol: (§1) For the monkey bone marrow and the human cord blood, methylcellulose from StemCell Technologies (Vancouver) was used to grow the stem cells as colonies. […] Cancer tissues are composed of various cell types, tumor cells, stromal fibroblasts, blood vessels, inflammatory cells, and adipocytes, all of which can carry over into single cell suspensions that are seeded into soft agar after tissue digestion. To examine whether tumor stem cells secrete cytokines that support their growth of enforce differentiation, the expression of 6 cytokines found in the supernatant of clonogenic assays was evaluated. Ultrasensitive immunoassay procedures based on the ELISA (enzyme linked immuno absorbent assay) technology were employed for the measurement of VEGF, TNF-alpha, GMCSF, GCSF IL4 and IL6. The assays were performed by the Cytokine Laboratory in the VA Hospital at the University of Maryland Baltimore and data provided as optical density readouts that were converted relative to a standard into pg/ml absolute cytokine values. The IL4 and 6 measurements were all negative; however VEGF, TNF-alpha, GMCSF and GCSF yielded interesting and differential results between tumor and normal stem cells. While cytokine levels decreased after RHPS4 treatment in tumor stem cell assays, they increased in normal stem cell cultures.

MCF-7 = assay: as above; type: cell-based, human; conditions: MCF-7 tumor stem cell assay supernatant
Protocol: as §1

COS(=O)(=O)[O-].Cc1cc2c3c([n+](C)c4ccc(F)cc4c3c1)-c1cc(F)ccc1N2C [RHPS4, 3,11-difluoro-6,8,13-trimethyl-8H-quino[4,3,2-kl]acridinium methosulfate]
IC50 (UXF1138L cells): 20 nM | time at which gamma-H2AX expression was seen (gamma-H2AX): 1 h | solubility in water (water solubility): water-soluble | secretion of stem cell associated cytokines (HEK293T): increased; also recorded: induction in cytokine secretion, particularly VEGF | secretion of stem cell associated cytokines (MCF-7): decreased; also recorded: inhibition of tumor necrosis factor alpha, VEGF, GMCSF and GCSF
